What is called IC50 is the concentration that gives 50% inhibition.

One data set has as its system HBV. Nature of the data set: Antiviral. The data set is classed as cell-based. The settings on record: Hepatitis B virus, HePAD38, read-out: IC50 (HBV DNA released from cells).
For data set [1] the following is noted: terminal cytosine of 3TC; stated without experiment, no reference given; cited from earlier work.
The conditions of data set [2]: Balb/cJ mice, s.c. 75 mg/kg.

On to `Nc1ccn([C@H]2CS[C@@H](CO)O2)c(=O)n1` [3TC, 2’,3’-Dideoxy-3’-Thiacytidine], for which the IC50 in the data set with HBV worked out at 0.17 µM. Moreover, the pKa result in data set [1] is “around 7.2”. Further, in data set [2], the “3TC plasma concentration after day 3” value is listed as “no drug detectable”.

The record behind these values is article PMC11044016 (Journal of the American Chemical Society, 2023).
